Consider eleven molecules from patent US10189836B2, “Therapeutic compounds, compositions and methods of use thereof” (Genentech, Inc., priority 2015, dated 2019).

Broadly, the Ki is the equilibrium dissociation constant of an inhibitor or competing ligand from its target.

SMILES strings stand for the structures.

The target in experiment [1] is isolated recombinant JAK2 kinase domain (Homo sapiens (Human), UniProt O60674). Description: JAK2 enzyme assay (Caliper LabChip, Ki). Type of experiment: biochemical. Conditions: isolated recombinant JAK2 kinase domain, 0.2 nM enzyme, ATP 25 μM.
Sequence of isolated recombinant JAK2 kinase domain (O60674 849-1124): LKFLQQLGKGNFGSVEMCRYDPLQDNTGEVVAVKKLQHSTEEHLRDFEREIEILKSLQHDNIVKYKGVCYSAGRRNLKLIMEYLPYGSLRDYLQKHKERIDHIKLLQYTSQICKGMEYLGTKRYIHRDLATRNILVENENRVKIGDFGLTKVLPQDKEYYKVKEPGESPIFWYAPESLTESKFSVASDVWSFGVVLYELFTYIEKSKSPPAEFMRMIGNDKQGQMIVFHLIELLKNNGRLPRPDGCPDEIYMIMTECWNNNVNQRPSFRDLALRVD
Experiment [2] has as its target isolated recombinant JAK1 kinase domain (Homo sapiens (Human), UniProt P23458). The experiment is described as follows: JAK1 enzyme assay (Caliper LabChip, Ki). Type of experiment: biochemical. The following applies: isolated recombinant JAK1 kinase domain, 1.5 nM enzyme, ATP 25 μM.

Sequence of isolated recombinant JAK1 kinase domain (P23458 875-1153): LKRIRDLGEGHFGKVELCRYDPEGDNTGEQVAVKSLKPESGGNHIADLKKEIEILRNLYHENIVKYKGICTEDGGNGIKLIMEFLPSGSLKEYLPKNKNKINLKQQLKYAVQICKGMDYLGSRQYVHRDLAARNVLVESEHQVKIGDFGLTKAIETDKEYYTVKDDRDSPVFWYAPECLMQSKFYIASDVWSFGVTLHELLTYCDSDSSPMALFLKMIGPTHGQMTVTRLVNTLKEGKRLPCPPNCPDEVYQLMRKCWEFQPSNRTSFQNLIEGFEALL

As for `CN1CCN(C(=O)Cn2cc(Nc3nc4c(N5CC6CCC(C5)N6C(=O)N5CCC(F)(F)CC5)cccn4n3)cn2)CC1` [Example 188, 2-[4-[[8-[8-(4,4-difluoropiperidine-1-carbonyl)-3,8-diazabicyclo[3.2.1]octan-3-yl]-[1,2,4]triazolo[1,5-a]pyridin-2-yl]amino]pyrazol-1-yl]-1-(4-methylpiperazin-1-yl)ethanone], the Ki in experiment [1] and in experiment [2] was 0.2 nM in each case.

As to `N#CC1(CNC2CCN(C(=O)Cn3cc(Nc4nc5c(N6CC7CCC(C6)N7C(=O)C6CC(C(F)(F)F)C6)cccn5n4)cn3)CC2)CC1` (stereo not shown) [Example 190, 1-[[[1-[2-[4-[[8-[8-[3-(trifluoromethyl)cyclo-butanecarbonyl]-3,8-diazabicyclo[3.2.1]octan-3-yl]-[1,2,4]triazolo[1,5-a]pyridin-2-yl]amino]pyrazol-1-yl]acetyl]-4-piperidyl]amino]methyl]-cyclopropanecarbonitrile], the inhibition constant (Ki) is 1.8 nM in experiment [1] and 1 nM in experiment [2].

With `N#CC1(CNC2CCN(C(=O)Cn3cc(Nc4nc5c(N6CC7CCC(C6)N7C(=O)C6CC(C(F)(F)F)C6)cccn5n4)cn3)CC2)CC1` (stereo not shown) [Example 191, 1-[[[1-[2-[4-[[8-[8-[3-(trifluoromethyl)cyclo-butanecarbonyl]-3,8-diazabicyclo[3.2.1]octan-3-yl]-[1,2,4]triazolo[1,5-a]pyridin-2-yl]amino]pyrazol-1-yl]acetyl]-4-piperidyl]amino]methyl]-cyclopropanecarbonitrile], the inhibition constant Ki was determined as 7.8 nM in experiment [1] and 3.5 nM in experiment [2].

In the case of `CN(CC1(C#N)CC1)C1CCN(C(=O)Cn2cc(Nc3nc4c(N5CC6CCC(C5)N6C(=O)C5CC(C(F)(F)F)C5)cccn4n3)cn2)CC1` (stereo not shown) [Example 192, 1-[[methyl-[1-[2-[4-[[8-[8-[3-(trifluoromethyl)cyclo-butanecarbonyl]-3,8-diazabicyclo[3.2.1]octan-3-yl]-[1,2,4]triazolo[1,5-a]alpyridin-2-yl]amino]pyrazol-1-yl]acetyl]-4-piperidyl]amino]methyl]-cyclopropanecarbonitrile], the values for the Ki in experiment [1] and in experiment [2] were 1.1 nM and 0.9 nM, respectively.

Regarding `CN(CC1(C#N)CC1)C1CCN(C(=O)Cn2cc(Nc3nc4c(N5CC6CCC(C5)N6C(=O)C5CC(C(F)(F)F)C5)cccn4n3)cn2)CC1` (stereo not shown) [Example 193, 1-[[methyl-[1-[2-[4-[[8-[8-[3-(trifluoromethyl)cyclobutanecarbonyl]-3,8-diazabicyclo[3.2.1]octan-3-yl]-[1,2,4]triazolo[1,5-a]pyridin-2-yl]amino]pyrazol-1-yl]acetyl]-4-piperidyl]amino]methyl]-cyclopropanecarbonitrile], the Ki was found to be 0.7 nM in experiment [1] and 0.6 nM in experiment [2].

Consider `O=C(Cn1cc(Nc2nc3c(N4CC5CCC(C4)N5C(=O)N4CC(C(F)(F)F)C4)cccn3n2)cn1)N1CCN(C2COC2)CC1` [Example 194, 1-[4-(oxetan-3-yl)piperazin-1-yl]-2-[4-[[8-[8-[3-(trifluoromethyl)azetidine-1-carbonyl]-3,8-diazabicyclo[3.2.1]octan-3-yl]-[1,2,4]triazolo[1,5-a]pyridin-2-yl]amino]pyrazol-1-yl]ethanone], for which the values for the Ki in experiment [1] and in experiment [2] were 0.4 nM and 0.9 nM, respectively.

With `CN1CCN(C(=O)Cn2cc(Nc3nc4c(N5C[C@H]6CC[C@@H](C5)[C@H]6OCc5cccc(CO)c5)cccn4n3)cn2)CC1` [Example 195, 1-(4-methylpiperazin-1-yl)-2-[4-[[8-[rac-(1S,5R)-8-[[3-(hydroxymethyl)phenyl]methoxy]-3-azabicyclo[3.2.1]octan-3-yl]-[1,2,4]triazolo[1,5-a]pyridin-2-yl]amino]pyrazol-1-yl]ethanone], the Ki in experiment [1] amounted to 0.7 nM; in experiment [2], 0.4 nM.

`CN1CCN(C(=O)Cn2cc(Nc3nc4c(N5CC6CCC(C5)N6C(=O)c5cnc(CC(F)(F)F)s5)cccn4n3)cn2)CC1` [Example 196]: the Ki in experiment [1] amounted to 1.1 nM; in experiment [2], 0.6 nM.

For `CSCCN1CCN(C(=O)Cn2cc(Nc3nc4c(N5CC6CCC(C5)N6C(=O)C5CC(C(F)(F)F)C5)cccn4n3)cn2)CC1` (stereo not shown) [Example 197, 1-[4-(2-methylsulfanylethyl)-piperazin-1-yl]-2-[4-[[8-[8-[3-(trifluoromethyl)-cyclobutanecarbonyl]-3,8-diazabicyclo[3.2.1]octan-3-yl]-[1,2,4]triazolo[1,5-a]pyridin-2-yl]amino]pyrazol-1-yl]ethanone], the Ki in experiment [1] and in experiment [2] was 0.3 nM each time.

`CSCCN1CCN(C(=O)Cn2cc(Nc3nc4c(N5CC6CCC(C5)N6C(=O)C5CC(C(F)(F)F)C5)cccn4n3)cn2)CC1` (stereo not shown) [Example 198, 1-[4-(2-methylsulfanylethyl)-piperazin-1-yl]-2-[4-[[8-[8-[3-(trifluoromethyl)-cyclobutanecarbonyl]-3,8-diazabicyclo[3.2.1]octan-3-yl]-[1,2,4]triazolo[1,5-a]pyridin-2-yl]amino]pyrazol-1-yl]ethanone]: the figures for the Ki in experiment [1] and in experiment [2] were 2.1 nM and 0.8 nM, respectively.

On to `CN1CCN(C(=O)Cn2cc(Nc3nc4c(N5CC6CCC(C5)N6C(=O)c5cccc(C#N)c5)cccn4n3)cn2)CC1` [Example 199, 3-[3-[2-[[1-[2-(4-methylpiperazin-1-yl)-2-oxo-ethyl]pyrazol-4-yl]amino]-[1,2,4]triazolo[1,5-a]pyridin-8-yl]-3,8-diazabicyclo[3.2.1]octane-8-carbonyl]benzonitrile], for which the inhibition constant (Ki) was found to be 2.1 nM in experiment [1] and 1.3 nM in experiment [2].
